Measurements as given in the supplement of paper PMC11616607.

What was measured:
Assay in all cases: drug sensitivity score (DSS) from 5-point dose-response viability curve (DSS (area-under-curve based score)); higher = more sensitive (stronger growth inhibition or killing); extreme values may be limits of the assay
Details in all cases: exposure time: 72 h; concentration range: 5 concentrations over 10,000-fold range
COV318 = tested on: COV318
Outline: (§1)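 Each cell line and drug received a drug sensitivity score from Breeze software, where higher means more sensitive. Zero stands for no response. Scores came from CellTiter-Glo viability readings of ovarian cancer and normal ovarian cells, 1,500 per well in 384-well plates, after 3 days at 37°C, 5% CO2 with drugs at five concentrations over a 10,000-fold range.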

HOSE1C = tested on: HOSE1C
Outline: as §1

Ovsaho = tested on: Ovsaho
Outline: as §1

OVCAR5 = tested on: OVCAR5
Outline: as §1

HOSE2C = tested on: HOSE2C
Outline: as §1

OVCAR4 = tested on: OVCAR4
Outline: as §1

COV362 = tested on: COV362
Outline: as §1

OV90 = tested on: OV90
Outline: as §1

Kuramochi = tested on: Kuramochi
Outline: as §1

JHOS2 = tested on: JHOS2
Outline: as §1

OVCAR8 = tested on: OVCAR8
Outline: as §1

CAOV3 = tested on: CAOV3
Outline: as §1

| Structure (SMILES) | drug sensitivity score (COV318) | drug sensitivity score (HOSE1C) | drug sensitivity score (Ovsaho) | drug sensitivity score (OVCAR5) | drug sensitivity score (HOSE2C) | drug sensitivity score (OVCAR4) | drug sensitivity score (COV362) | drug sensitivity score (OV90) | drug sensitivity score (Kuramochi) | drug sensitivity score (JHOS2) | drug sensitivity score (OVCAR8) | drug sensitivity score (CAOV3) |
| --- | --- | --- | --- | --- | --- | --- | --- | --- | --- | --- | --- | --- |
| CNCc1ccc(-c2[nH]c3cc(F)cc4c3c2CCNC4=O)cc1 [Rucaparib] | 0.5 | 0 | 0.4 | 1.2 | 0 | 0 | 0 | 1.7 | 0.3 | 0.7 | 1.8 | 0 |
| N#CC[C@H](C1CCCC1)n1cc(-c2ncnc3[nH]ccc23)cn1 [Ruxolitinib] | 0 | 0 | 0 | 0 | 0 | 0 | 0 | 0.1 | 0 | 1 | 0.1 | 0 |
| CC(C)N(CCCNC(=O)Nc1ccc(C(C)(C)C)cc1)C[C@H]1O[C@@H](n2cc(Br)c3c(N)ncnc32)[C@H](O)[C@@H]1O [SGC0946] | 0 | 0 | 0.1 | 1.7 | 0 | 0.1 | 3.4 | 2.3 | 0 | 0 | 0 | 0 |
| COc1ccc(CCc2nc3cc(-c4c(C)noc4C)ccc3n2C[C@H](C)N2CCOCC2)cc1Cl [SGC-CBP30] | 3.1 | 11 | 6.6 | 2.9 | 6.1 | 2 | 0.2 | 3.4 | 6.6 | 1.7 | 5.7 | 3.7 |
| CN1CCC(CNc2ccc3ncc(-c4cccc(OC(F)(F)F)c4)n3n2)CC1 [SGI-1776] | 4.7 | 8 | 7.7 | 6.9 | 7.2 | 3.3 | 4.3 | 5.6 | 5.1 | 5.2 | 6 | 5.1 |
| CN(CC(=O)N(Cc1ccc(C2CCCCC2)cc1)c1ccc(C(=O)O)cc1)S(=O)(=O)c1c(F)c(F)c(F)c(F)c1F [SH-4-54] | 5.1 | 7.5 | 5.7 | 5.2 | 7.5 | 6.2 | 4.5 | 7.4 | 6.6 | 5.2 | 5.8 | 8.1 |
| CCc1c2c(nc3ccc(O)cc13)-c1cc3c(c(=O)n1C2)COC(=O)[C@]3(O)CC [SN-38] | 13.8 | 37.3 | 21.2 | 24 | 36.4 | 14.4 | 16.8 | 24.6 | 14.6 | 25.2 | 28.6 | 37.9 |
| CC(C)(C)c1cnc(CSc2cnc(NC(=O)C3CCNCC3)s2)o1 [SNS-032] | 11 | 21.2 | 18.9 | 18.5 | 12.1 | 13.9 | 13.9 | 16.1 | 15.8 | 23.3 | 20 | 16.2 |
| Cc1cc2c(C(=O)NC[C@H](C)c3ccccc3)c(O)c(O)cc2c(O)c1-c1c(C)cc2c(C(=O)NC[C@H](C)c3ccccc3)c(O)c(O)cc2c1O [Sabutoclax] | 8.8 | 18 | 8.2 | 10.8 | 16.1 | 8.3 | 9 | 11.2 | 6.7 | 8.1 | 15.9 | 15.4 |
| CC[C@@H](C(=O)[C@@H](C)[C@@H](O)[C@H](C)[C@@H]1O[C@@H]([C@@H](CC)C(=O)O)CC[C@@H]1C)[C@H]1O[C@]2(C=C[C@@H](O)[C@]3(CC[C@@](C)([C@H]4CC[C@](O)(CC)[C@H](C)O4)O3)O2)[C@H](C)C[C@@H]1C [Salinomycin] | 13.4 | 21.2 | 27.1 | 13.2 | 22.1 | 14.2 | 8.2 | 19.4 | 21 | 18.3 | 17.9 | 15.4 |
| CC(C)n1nc(-c2ccc3oc(N)nc3c2)c2c(N)ncnc21 [Sapanisertib] | 8.2 | 13 | 14.6 | 12.4 | 10.9 | 10.7 | 3.2 | 15.2 | 8.9 | 7.4 | 9.8 | 8.4 |
| CNC(=O)CN1CCC(Oc2cc3c(Nc4cccc(Cl)c4F)ncnc3cc2OC)CC1 [Sapitinib] | 0 | 0 | 0.7 | 1.7 | 0 | 0 | 0 | 0 | 0 | 0 | 0 | 6.8 |
| CN1CCN(CCOc2cc(OC3CCOCC3)c3c(Nc4c(Cl)ccc5c4OCO5)ncnc3c2)CC1 [Saracatinib] | 0.4 | 2 | 7 | 9.2 | 5 | 3.8 | 5.6 | 5 | 9.7 | 3.1 | 5.1 | 8.2 |
| CC1=C2C[C@H]3[C@@H](CC[C@@H]4C[C@H](NS(C)(=O)=O)CC[C@@]43C)[C@@H]2CC[C@@]2(C1)O[C@@H]1C[C@H](C)CN[C@H]1[C@H]2C [Saridegib] | 0 | 2.3 | 0 | 0 | 0.1 | 0 | 0 | 0 | 0 | 0 | 0.4 | 0.5 |
| O=C(/C=C\n1cnc(-c2cc(C(F)(F)F)cc(C(F)(F)F)c2)n1)NNc1cnccn1 [Selinexor] | 8.2 | 29 | 16.5 | 15.3 | 9.3 | 10.7 | 7.9 | 8.2 | 8.1 | 13.9 | 17.4 | 18.7 |
